Experimental data published in ChEMBL document CHEMBL6121018, “Targeting JNK3 for Alzheimer's disease: Design and synthesis of novel inhibitors with aryl group diversity utilizing wide pocket” (Eur J Med Chem, 2025).

Key:
in vitro [1] = settings: PAMPA
Description: Permeability coefficient of compound by PAMPA

[2] = target: Glycogen synthase kinase-3 alpha (Homo sapiens, UniProt P49840); assay: Inhibition of GSK3alpha (unknown origin) using 33P-ATP as substrate incubated for 2 hrs by P81 filter-binding method
[3] = target: Mitogen-activated protein kinase 9 (Homo sapiens, UniProt P45984)
Chain of Mitogen-activated protein kinase 9 (P45984 whole entry): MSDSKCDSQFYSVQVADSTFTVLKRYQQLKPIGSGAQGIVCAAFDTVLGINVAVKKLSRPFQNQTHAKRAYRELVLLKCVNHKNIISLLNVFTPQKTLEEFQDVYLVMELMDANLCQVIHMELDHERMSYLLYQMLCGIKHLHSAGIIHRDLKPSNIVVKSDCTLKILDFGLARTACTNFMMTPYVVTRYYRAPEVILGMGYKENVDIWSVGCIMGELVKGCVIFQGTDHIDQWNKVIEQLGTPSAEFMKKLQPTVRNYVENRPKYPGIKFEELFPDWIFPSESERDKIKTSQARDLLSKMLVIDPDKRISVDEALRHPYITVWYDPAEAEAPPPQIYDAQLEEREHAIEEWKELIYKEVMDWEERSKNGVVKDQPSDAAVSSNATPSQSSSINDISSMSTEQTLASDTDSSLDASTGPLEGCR
Description: Inhibition of JNK2 (unknown origin) using 33P-ATP as substrate incubated for 2 hrs by P81 filter-binding method

[4] = target: Mitogen-activated protein kinase 14 (Homo sapiens, UniProt Q16539)
Chain of Mitogen-activated protein kinase 14 (Q16539 whole entry): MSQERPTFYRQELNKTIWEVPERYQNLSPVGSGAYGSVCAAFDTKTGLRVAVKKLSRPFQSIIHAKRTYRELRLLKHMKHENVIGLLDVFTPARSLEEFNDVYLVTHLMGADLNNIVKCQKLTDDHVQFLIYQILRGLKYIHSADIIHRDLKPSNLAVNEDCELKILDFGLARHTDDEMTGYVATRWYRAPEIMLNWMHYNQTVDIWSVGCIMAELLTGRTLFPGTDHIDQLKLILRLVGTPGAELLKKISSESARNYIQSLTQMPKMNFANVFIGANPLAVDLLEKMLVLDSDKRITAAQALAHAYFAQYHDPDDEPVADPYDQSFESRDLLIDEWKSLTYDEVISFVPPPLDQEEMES
Description: Inhibition of p38alpha (unknown origin) using 33P-ATP as substrate incubated for 2 hrs by P81 filter-binding method

[5] = target: Mitogen-activated protein kinase 8 (Homo sapiens, UniProt P45983)
Chain of Mitogen-activated protein kinase 8 (P45983 whole entry): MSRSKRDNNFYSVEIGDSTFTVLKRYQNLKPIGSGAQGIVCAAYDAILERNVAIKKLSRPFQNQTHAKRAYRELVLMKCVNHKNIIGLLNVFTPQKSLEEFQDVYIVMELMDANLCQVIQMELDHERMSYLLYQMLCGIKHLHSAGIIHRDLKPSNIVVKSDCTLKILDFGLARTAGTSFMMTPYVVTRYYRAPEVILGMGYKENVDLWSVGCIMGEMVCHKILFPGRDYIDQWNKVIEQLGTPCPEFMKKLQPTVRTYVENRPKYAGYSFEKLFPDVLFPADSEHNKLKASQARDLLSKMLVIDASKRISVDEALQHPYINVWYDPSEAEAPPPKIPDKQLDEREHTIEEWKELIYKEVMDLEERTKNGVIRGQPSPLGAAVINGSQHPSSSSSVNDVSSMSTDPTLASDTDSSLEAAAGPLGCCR
Description: Inhibition of JNK1 (unknown origin) using 33P-ATP as substrate incubated for 2 hrs by P81 filter-binding method

[6] = target: Glycogen synthase kinase-3 beta (Homo sapiens, UniProt P49841); assay: Inhibition of GSK3beta (unknown origin) using 33P-ATP as substrate incubated for 2 hrs by P81 filter-binding method
Chain of Glycogen synthase kinase-3 beta (P49841 whole entry): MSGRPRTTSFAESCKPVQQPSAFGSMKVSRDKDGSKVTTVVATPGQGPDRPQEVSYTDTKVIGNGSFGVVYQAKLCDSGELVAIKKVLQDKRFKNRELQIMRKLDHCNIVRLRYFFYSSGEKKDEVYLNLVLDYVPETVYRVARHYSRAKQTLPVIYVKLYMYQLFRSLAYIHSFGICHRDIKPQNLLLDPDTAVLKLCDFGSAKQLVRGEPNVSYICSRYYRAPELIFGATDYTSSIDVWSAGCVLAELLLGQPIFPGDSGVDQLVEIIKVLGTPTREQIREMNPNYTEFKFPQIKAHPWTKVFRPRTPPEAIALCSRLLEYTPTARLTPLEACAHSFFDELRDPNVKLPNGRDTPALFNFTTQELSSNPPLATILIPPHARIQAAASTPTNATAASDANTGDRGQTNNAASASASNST

[7] = target: T1, Mitogen-activated protein kinase 10 (Homo sapiens, UniProt P53779); assay: Inhibition of JNK3 (unknown origin) using ATF as substrate in presence of [gamma-33P]ATP incubated for 40 mins by scintillation counter analysis
T1 sequence (P53779 whole entry): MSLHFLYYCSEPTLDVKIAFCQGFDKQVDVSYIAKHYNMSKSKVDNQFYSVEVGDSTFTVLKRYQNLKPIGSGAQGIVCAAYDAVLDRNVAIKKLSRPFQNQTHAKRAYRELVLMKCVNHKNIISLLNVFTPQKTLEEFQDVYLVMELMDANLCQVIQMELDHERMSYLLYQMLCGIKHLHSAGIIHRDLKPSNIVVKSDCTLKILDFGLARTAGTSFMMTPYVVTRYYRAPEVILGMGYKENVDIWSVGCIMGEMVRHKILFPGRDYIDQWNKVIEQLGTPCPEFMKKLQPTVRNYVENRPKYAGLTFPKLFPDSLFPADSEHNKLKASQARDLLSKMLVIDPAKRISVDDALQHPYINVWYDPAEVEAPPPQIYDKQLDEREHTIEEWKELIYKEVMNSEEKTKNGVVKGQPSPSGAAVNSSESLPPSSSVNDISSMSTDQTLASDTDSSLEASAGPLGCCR

in vitro [8] = settings: Sprague-Dawley, rat, primary cortical neurons
Description: Cytotoxicity against Sprague-Dawley rat Primary cortical neuron assessed as cell viability incubated for 24 hrs by MTT assay

in vitro [9] = settings: human, plasma
Description: Stability in human plasma assessed as parent compound remaining at 30 mins

in vitro [10] = settings: human, plasma; remark: listed apart in the source
Description: Stability in human plasma assessed as parent compound remaining at 60 mins

Cortical neurone [11] = assay: (§1) Neuroprotective activity against amyloid beta (1 to 42 residues)-induced Sprague-Dawley rat primary cortical neurons assessed as cell viability at 20 uM pretreated with compound for 90 mins followed by amyloid beta (1 to 42 residues) induction for 24 hrs and measured on day 5 by MTT assay (reference value: 100%); assay type: functional; settings: 121.5 h, time 7290 min, read-out: Activity
in vitro [12] = settings: human, liver microsomes
[13] = target: T1, Mitogen-activated protein kinase 10; assay: Inhibition of JNK3 (unknown origin)
Cortical neurone [14] = assay: as §1, with “10” for “20”; settings: 121.5 h, read-out: Activity

Chain of Glycogen synthase kinase-3 alpha (P49840 whole entry): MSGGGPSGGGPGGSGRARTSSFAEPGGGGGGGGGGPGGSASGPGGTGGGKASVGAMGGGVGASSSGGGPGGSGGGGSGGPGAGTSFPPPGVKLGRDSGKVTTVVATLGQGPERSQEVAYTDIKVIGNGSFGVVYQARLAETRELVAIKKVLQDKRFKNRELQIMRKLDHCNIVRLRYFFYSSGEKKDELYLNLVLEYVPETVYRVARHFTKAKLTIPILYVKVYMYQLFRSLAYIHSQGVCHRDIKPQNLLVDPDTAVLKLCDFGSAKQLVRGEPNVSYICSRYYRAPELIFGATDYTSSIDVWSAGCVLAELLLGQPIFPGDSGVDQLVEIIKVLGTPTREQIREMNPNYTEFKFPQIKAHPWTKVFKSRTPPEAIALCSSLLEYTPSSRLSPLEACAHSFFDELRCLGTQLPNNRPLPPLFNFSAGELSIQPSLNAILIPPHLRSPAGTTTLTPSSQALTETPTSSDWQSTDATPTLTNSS

CC(=O)[C@H]1CC[C@H]2[C@@H]3CCC4=CC(=O)CC[C@]4(C)[C@H]3CC[C@]12C [PROGESTERONE]
Papp (in vitro [1]): 40.7 ×10⁻⁶ cm/s

NC(=O)c1nn(-c2ccnc(N[C@H]3CCCN(C(=O)C4CC4)C3)n2)cc1/C=C/c1ccccc1
IC50 [2]: 35 nM
IC50 [3]: 450 nM
IC50 [4]: Not_active
IC50 [5]: 80 nM
IC50 [6]: 14 nM

CN(C)C1CCN(c2ccc(Nc3nccc(-n4cc(/C=C/c5ccccc5)c(C(N)=O)n4)n3)cc2)CC1
IC50 [7]: 96 nM
viability at 24 h (in vitro [8]): 102%

CCOC(=O)[C@H](CCc1ccccc1)N[C@@H](C)C(=O)N1CCC[C@H]1C(=O)O
remaining at 0.5 h (in vitro [9]): 95%
remaining at 1 h (in vitro [10]): 90%

CN1CCN(c2ccc(Nc3nccc(-n4cc(/C=C/c5ccccc5)c(C(N)=O)n4)n3)cc2)CC1
IC50 [7]: 276 nM
viability at 24 h (in vitro [8]): 104%

Oc1ccc(/C=C/c2cc(O)cc(O)c2)cc1 [RESVERATROL]
viability at 20 µM (Cortical neurone [11]): 85%

CCOC(=O)c1nn(-c2ccnc(Nc3ccc(N4CCC(N(C)C)CC4)cc3)n2)cc1/C=C/c1cccc(Br)c1
IC50 [7]: 8330 nM

COc1ccc(CCN(C)CCCC(C#N)(c2ccc(OC)c(OC)c2)C(C)C)cc1OC (stereo not drawn)
remaining at 1 h (in vitro [12]): 20.3%

N#CCc1cc(-c2ccc(Cl)c(Cl)c2)n(-c2ccnc(N[C@H]3CCN(C(=O)C4CC4)C3)n2)n1
IC50 [13]: 227 nM
viability at 24 h (in vitro [8]): 103%
viability at 10 µM (Cortical neurone [14]): 14%
